From US11628208B2, “System and method for microneedle delivery of microencapsulated vaccine and bioactive proteins” (priority 2015, dated 2023)

Tests used:
RAW 264.7 cells = experiment: MTS cell cytotoxicity assay; format: cell-based, mouse; settings: 10 mg/mL, positive control, relative to DMEM-treated cells
Method: Particles were tested for their cytotoxic properties using MTS assay (Promega), which determines cell viability in culture. RAW 264.7 cells (mouse leukemic monocyte macrophage cell line) were grown in DMEM medium, supplemented with 10% fetal bovine serum and 1% antibiotic in a cell culture flask. The cell culture media was then removed and cells were treated with 2 mL trypsin-EDTA. Thus, cells were detached from the cell culture flask and suspended in 1 mL complete DMEM media. Cell count of the resulting suspension was determined by trypan blue dye exclusion method using Bio-Rad counter (TC10™ Automated cell counter, Bio-Rad, CA). Cell suspension equivalent to 10,000 cells was plated in a 96 well cell culture plate and complete DMEM media was added to attain a volume of 100 μL per well. Plate was incubated for 24 h and various concentrations (2, 1, 0.5, 0.25, 0.125, 0.0625 mg/mL) of 4T07 antigen loaded particles were added to wells (n=3 for each concentration) and again incubated for 24 h. Cells treated with DMEM media alone were used as a negative control and cells treated with benzalkonium chloride (10 mg/ml) were chosen as a positive control (n=3 each). […] The plate was incubated for 4 h at 37° C. in a humidified, 5% CO2 chamber and absorbance was recorded at 490 nm using a UV plate reader (BioTek instruments Inc., VT).

dendritic cells (DC 2.4) = experiment: Nitric oxide release from dendritic cells exposed to RSV F-VLP vaccine; format: cell-based
Method: For in vitro analysis of immunogenicity of the F-VLP, dendritic cells (DC 2.4) were cultured and exposed to varying concentrations of the vaccine. The optimal concentration was then used to screen four different adjuvants (Poly I:C, Alum, MPL and MF59). Evaluation of innate and adaptive immunity was done using the nitric oxide assay and expression of cell surface markers using the C6 flow cytometer.
a. Following exposure to an antigen, dendritic cells (DC 2.4) are known to release nitric oxide and express cell surface markers that signal CD4+ Helper T cells and/or CD8+ Cytotoxic T cells.

[1] = test system: CD4+ and CD8+ T cell populations; experiment: CD4/CD8 population analysis of splenocytes incubated with stimulated APCs; format: cell-based, Swiss Webster mice; settings: 5 days
Method: The spleens were collected from the same mice that were harvested APCs from the intraperitoneal cavity, and the single-cell suspensions of the spleens were introduced into the stimulated APCs with a ratio of 1:1 (splenocytes:APCs). After a five-day incubation at 37° C. and 5% CO2, the splenocytes were harvested from the supernatant, washed with Hank's balanced salt solution and labeled with anti-mouse CD4 PE and anti-mouse CD8a FITC. The cells were analyzed for CD4^+ and CD8^+ T cell populations using BD Accuri® C6 flow cytometer.

APCs = experiment: Nitric oxide assay (Greiss) on harvested APCs; format: cell-based, Swiss Webster mice; settings: 2.5 μg adjuvant in MP + 2.5 μg M2p in MP, 20 hours
Method: 5 Sodium thioglycolate was injected into the intraperitoneal cavity of Swiss Webster (6-8 week old) with the amount of 40 mg per mouse to recruit the APCs (13)(14). After four days, these mice were euthanized and 5.0 mL of PBS was injected intraperitoneally into each mouse to harvest cells from the cavity. Collected cells were washed with PBS twice before adding the complete RPMI media. After these APCs adhered to the bottom of a T75 flask, the supernatant was removed and complete RPMI media was added in the presence of ConA ([…]).
The harvested APCs (5×10^4 cells/well) were seeded in Dulbecco's complete media in a 96 well plate. The soluble and particulate vaccines (with and without adjuvants) were introduced to the APCs with the same amount of antigen (2.5 μg) and adjuvant (2.5 μg). The induced APCs were incubated for 20 hours at 37° C. % CO2. Supernatants were collected and the amount of nitric oxide released in each group was analyzed using the Greiss chemical method (equal volumes of 1% sulphanilamide and 0.1% N-(1-naphthylethylenediamine)). The plate was read at a wavelength of 540 nm (15).

For `CCCCCCCCCCCCC[N+](C)(C)Cc1ccccc1` [benzalkonium chloride], which cell viability (RAW 264.7 cells) is on record?
Its cell viability is 21%.

For Poly I:C, which “amount of nitric oxide released, vaccine with adjuvant compared to vaccine alone” value (dendritic cells (DC 2.4)) is on record?
Its value is “much higher compared to vaccine alone”.

monophospholyl lipid A [MPL] was tested. Which “CD8+ T cell population compared to M2p MP treated group” value [1] did it give?
Its value is “elevated”.

B1: Flagellin: flagellin from Salmonella typhimurium, adjuvant in microparticles (protein, UniProt P06179 2-495, looked up)
Flagellin: AQVINTNSLSLLTQNNLNKSQSALGTAIERLSSGLRINSAKDDAAGQAIANRFTANIKGLTQASRNANDGISIAQTTEGALNEINNNLQRVRELAVQSANSTNSQSDLDSIQAEITQRLNEIDRVSGQTQFNGVKVLAQDNTLTIQVGANDGETIDIDLKQINSQTLGLDTLNVQQKYKVSDTAATVTGYADTTIALDNSTFKASATGLGGTDQKIDGDLKFDDTTGKYYAKVTVTGGTGKDGYYEVSVDKTNGEVTLAGGATSPLTGGLPATATEDVKNVQVANADLTEAKAALTAAGVTGTASVVKMSYTDNNGKTIDGGLAVKVGDDYYSATQNKDGSISINTTKYTADDGTSKTALNKLGGADGKTEVVSIGGKTYAASKAEGHNFKAQPDLAEAAATTTENPLQKIDAALAQVDTLRSDLGAVQNRFNSAITNLGNTVNNLTSARSRIEDSDYATEVSNMSRAQILQQAGTSVLAQANQVPQNVLSLLR
For B1, which “nitric oxide level compared to M2p MP group” value (APCs) is on record?
The value was “significantly higher”.

And the “CD4+ T cell population compared to M2p MP treated group” value [1]?
The value was “elevated CD4+ T cell population”.
